Data from patent US8535226B2, “Method for measuring in vivo hematotoxicity with an emphasis on radiation exposure assessment” (Litron Laboratories, Ltd., priority 2007, dated 2013).

What was measured:
[1] = tested on: lymphocytes; assay: Ex vivo treatment of human blood, TMRE mitochondrial membrane potential of lymphocytes by flow cytometry; type: cell-based; conditions: whole blood treated ex vivo with 50 μM before staining with SYTO 13 and TMRE
Description: Furthermore, one fraction of blood was treated ex vivo with carbonyl cyanide 3-chlorophenylhydrazone (CCCP), a toxic chemical that is known to disrupt mitochondrial membrane potential.
Blood from a finger prick (approximately 150 μl) was collected into a tube containing 10 μl heparin solution (500 Units/ml; approximately 6% dilution). One 5 μl aliquot of heparinized whole blood was added to a tube with 1 ml Hank's Balance Salt Solution containing SYTO®13 at 5 nM, TMRE at 100 nM, and 20,720 counting beads per ml (beads from Molecular Probes, cat. no. C36950) (i.e., blood diluted another 200-fold). A second fraction of blood was treated with 50 μM CCCP before being stained with SYTO® and TMRE as above. After staining for 30 minutes at room temperature, the samples were analyzed with a FACSCalibur flow cytometer providing 488 nm excitation.
Acquisition was triggered with a FL1 threshold that was set sufficiently high so as to exclude platelets, mature erythrocytes and reticulocytes, thereby restricting acquisition to nucleated cells. By expressing light scatter in linear scale, it was possible to focus on particular subpopulations, for instance lymphocytes that are low in forward and side scatter relative to other nucleated cells (FIG. 4A). […]

[2] = tested on: reticulocytes; assay: Radioprotectant evaluation using mouse blood: reticulocytes; type: in vivo, C57BL/6J mice; conditions: 400 mg/kg ip, 30 minutes prior to 1 Gy gamma rays; blood collected 46±3 hrs post-irradiation
Description: In this experiment, one group of five C57BL/6J mice was sham irradiated, whereas two other groups of five mice were exposed to 1 Gy gamma rays. […] 5 μl of whole blood were added to tubes containing 1 ml HBSS with SYTO®13 at 10 nM, TMRE at 100 nM, and 20,720 counting beads per ml (beads from Molecular Probes, cat. no. C36950). After 30 minutes at room temperature, the samples were moved to 4° C. and analyzed with a FACSCalibur flow cytometer providing 488 nm excitation. In the first round of analysis, a forward scatter threshold was used to trigger data acquisition. With the trigger channel set sufficiently low, platelets as well as all blood cell types were acquired. Similar to thiazole orange, SYTO®13 dye in conjunction with light scatter signals was capable of resolving mature erythrocytes, reticulocytes, nucleated cells, platelets, and reticulated platelets. […] Reticulocytes can thus be quantified as a percentage of all erythrocytes, and reticulated platelets can be quantified as a percentage of all platelets. Furthermore, with the incorporation of the TMRE dye, it was possible to enumerate the percentage of reticulocytes that express dysfunctional mitochondrial membranes.

[3] = tested on: lymphocytes; assay: Radioprotectant evaluation using mouse blood: lymphocytes; type: in vivo, C57BL/6J mice; conditions: 400 mg/kg ip, 30 minutes prior to 1 Gy gamma rays; blood collected 46±3 hrs post-irradiation
Description: In this experiment, one group of five C57BL/6J mice was sham irradiated, whereas two other groups of five mice were exposed to 1 Gy gamma rays. While one group of irradiated mice was injected with vehicle, the other was injected with the radioprotectant agent amifostine (400 mg/kg injected ip, 30 minutes prior to irradiation). […] 5 μl of whole blood were added to tubes containing 1 ml HBSS with SYTO®13 at 10 nM, TMRE at 100 nM, and 20,720 counting beads per ml (beads from Molecular Probes, cat. no. C36950). After 30 minutes at room temperature, the samples were moved to 4° C. and analyzed with a FACSCalibur flow cytometer providing 488 nm excitation. […] Furthermore, with the incorporation of the TMRE dye, it was possible to enumerate the percentage of lymphocytes that express dysfunctional mitochondrial membranes.

Which results are given for `N#CC(C#N)=NNc1cccc(Cl)c1` [CCCP, carbonyl cyanide 3-chlorophenylhydrazone]?
TMRE-associated fluorescence of lymphocytes / incidence of TMRE-negative lymphocytes [1]: increased incidence of events falling into this region; TMRE-associated fluorescence of lymphocytes / incidence of TMRE-negative lymphocytes ([1]; listed as carbonyl cyanide 3-chlorophenylhydrazone): low TMRE-associated fluorescence

`NCCCNCCSP(=O)(O)O` [amifostine] was tested. Which “reticulocyte effects of 1 Gy irradiation (decrease of reticulocytes, increase in percentage of reticulocytes with dysfunctional mitochondria)” value [2] did it give?
The value was “ameliorated”.

What about the “protection against decrease of percentage of lymphocytes by 1 Gy irradiation” value [3] of the same molecule?
The value was “no appreciable protection”.
